Earlier results as cited in paper PMC3172588 (Organic & Biomolecular Chemistry, 2010).
pEC50: −log10 of the molar value.

Assays:
[1] = test system: sea urchin cADPR receptor (sea urchin egg homogenate, SUH)
[2] = test system: T cell-cADPR receptor (permeabilised Jurkat T-cells, JTC); conditions: class in words; ref [8],[17],[23],[36]

With 3-deaza cADPR as the compound, how does the “times more potent than cADPR in SUH” value ([1]; agonist, ref [20]) read?
The value was 70 times.

For `[N-]=[N+]=Nc1nc2c(=N)n3cnc2n1C1OC(COP(=O)(O)OP(=O)(O)OCC2OC3C(O)C2O)C(O)C1O` (stereo not shown) [8-azido-cADPR], which “Activity in SUH (running text, literature)” value ([1]; class in words, ref [8],[13],[17],[23],[32],[36],[38]) is on record?
The value was “antagonists”.

With 8-Cl-cADPcR [8-Cl-cADPcR (5)] as the compound, how does the pEC50 ([1]; read-out: Activity in SUH: agonist EC50, Table 3, compounds synthesized by Shuto's group, ref [15],[38],[51],[52]) read?
The pEC50 was 4.72.

Which “Activity in T cells / JTC (running text, literature)” value [2] does the source give for `O=c1c2nc(Br)n3c2ncn1[C@@H]1O[C@H](COP(=O)(O)OP(=O)(O)OC[C@H]2O[C@@H]3[C@H](O)[C@@H]2O)[C@@H](O)[C@H]1O` [8-Bromo cIDPR] here?
The value was “agonist activity”.
